Assay results: US8952024B2, “Herbicidal pyrimidone derivatives” (E I du Pont de Nemours and Company, priority 2009, dated 2015)
Where two headings read alike, the source gives them in different places.

Assays:
Assay in all cases: Test B pre-/postemergence plant response
Type in all cases: in vivo
[1] = system: large crabgrass (Digitaria sanguinalis); details: for pest or weed control at 31 g/ha: 31 g ai/ha, scale 0 to 100 (0 no effect, 100 complete control); for pest or weed control at 62 g/ha: 62 g ai/ha
Summary of the method: (§1)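 Steps: sow seed in loam–sand soil and spray preemergence, or grow plants in peat-based medium to 1–4 leaves (2–18 cm) and spray postemergence; formulation is non-phytotoxic solvent plus surfactant; hold in greenhouse 13–15 days; score visually vs controls, 0 = no effect, 100 = complete control.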

[2] = system: nightshade (eastern black nightshade, Solanum ptycanthum); details: Preemergence
Summary of the method: as §1

[3] = system: lambsquarters (Chenopodium album); details: for pest or weed control at 62 g/ha: 62 g ai/ha
Summary of the method: as §1

[4] = system: sunflower (common oilseed sunflower, Helianthus annuus); details: Preemergence
Summary of the method: as §1

[5] = system: woolly cupgrass (Eriochloa villosa); details: for pest or weed control at 31 g/ha: 31 g ai/ha, scale 0 to 100 (0 no effect, 100 complete control); for pest or weed control at 62 g/ha: 62 g ai/ha
Summary of the method: as §1

kochia (Kochia scoparia) = details: Postemergence
Summary of the method: as §1

[6] = system: yellow nutsedge (Cyperus esculentus)
Summary of the method: as §1

[7] = system: Surinam grass (Brachiaria decumbens)
Summary of the method: as §1

[8] = system: galium (catchweed bedstraw, Galium aparine); details: Preemergence
Summary of the method: as §1

wild oat (Avena fatua) = system: wild oat (Avena fatua)
Summary of the method: as §1

[9] = system: cocklebur (Xanthium strumarium)
Summary of the method: as §1

[10] = Postemergence, 250 g ai/ha, scale 0 to 100
[11] = Preemergence, 125 g ai/ha, 0 to 100 scale
[12] = 31 g ai/ha, scale 0 to 100 (0 no effect, 100 complete control)
[13] = 62 g ai/ha, scale 0 to 100, 0 no effect, 100 complete control

Cc1c(F)cccc1-n1c(-c2ccccc2)ncc(C(=O)C2=C(O)CCCC2=O)c1=O [Compound 47, 3-(3-fluoro-2-methylphenyl)-5-[(2-hydroxy-6-oxo-1-cyclohexen-1-yl)carbonyl]-2-phenyl-4(3H)-pyrimidinone]
pest or weed control at 31 g/ha ([1]; Digitaria sanguinalis, post-emergence, Postemergence, read-out: Plant response rating, Crabgrass, Large): 85%
pest or weed control at 62 g/ha ([1]; Digitaria sanguinalis, post-emergence, Postemergence, scale 0 (no effect) to 100 (complete control), 13 to 15 days, read-out: Plant response rating, Crabgrass, Large): 85%
pest or weed control at 125 g/ha ([1]; Digitaria sanguinalis, post-emergence, Postemergence, 125 g ai/ha, visual rating after 13 to 15 days, scale 0 (no effect) to 100 (complete control)): 90%
pest or weed control at 250 g/ha ([1]; Digitaria sanguinalis, pre-emergence, 250 g ai/ha, Preemergence, 0 to 100 scale, read-out: Plant response rating, Crabgrass, Large): 100%
pest or weed control at 31 g/ha ([1]; Digitaria sanguinalis, pre-emergence, Preemergence, read-out: Plant response rating, Crabgrass, Large): 75%
pest or weed control at 62 g/ha ([1]; Digitaria sanguinalis, pre-emergence, Preemergence, scale 0 to 100, 0 no effect, 100 complete control, read-out: Plant response rating, Crabgrass, Large): 95%
Crabgrass, Large plant response rating [1, 10]: 100
Crabgrass, Large plant response rating [1, 11]: 100
Plant response rating, Nightshade ([2]; 250 g ai/ha, 0 to 100 scale): 100
Plant response rating, Nightshade [2, 12]: 100
Plant response rating, Nightshade [2, 13]: 100
Nightshade plant response rating ([2]; 125 g ai/ha, 0 to 100 scale): 100
pest or weed control at 62 g/ha ([3]; Chenopodium album, post-emergence, Postemergence, scale 0 (no effect) to 100 (complete control), 13 to 15 days, read-out: Plant response rating, Lambsquarters): 98%
pest or weed control at 125 g/ha ([3]; Chenopodium album, post-emergence, Postemergence, 125 g ai/ha, visual rating after 13 to 15 days, scale 0 (no effect) to 100 (complete control)): 98%
pest or weed control at 250 g/ha ([3]; Chenopodium album, pre-emergence, 250 g ai/ha, Preemergence, 0 to 100 scale, read-out: Plant response rating, Lambsquarters): 100%
pest or weed control at 31 g/ha ([3]; Chenopodium album, pre-emergence, Preemergence, 31 g ai/ha, scale 0 to 100 (0 no effect, 100 complete control), read-out: Plant response rating, Lambsquarters): 100%
pest or weed control at 62 g/ha ([3]; Chenopodium album, pre-emergence, Preemergence, scale 0 to 100, 0 no effect, 100 complete control, read-out: Plant response rating, Lambsquarters): 100%
Lambsquarters plant response rating [3, 10]: 100
Lambsquarters plant response rating [3, 11]: 100
Plant response rating, Sunflower ([4]; 250 g ai/ha, 0 to 100 scale): 85
Plant response rating, Sunflower [4, 12]: 65
Sunflower plant response rating ([4]; 125 g ai/ha, 0 to 100 scale): 80
pest or weed control at 31 g/ha ([5]; Eriochloa villosa, post-emergence, Postemergence, read-out: Plant response rating, Cupgrass, Woolly): 85%
pest or weed control at 62 g/ha ([5]; Eriochloa villosa, post-emergence, Postemergence, scale 0 (no effect) to 100 (complete control), 13 to 15 days, read-out: Plant response rating, Cupgrass, Woolly): 90%
pest or weed control at 125 g/ha ([5]; Eriochloa villosa, post-emergence, Postemergence, 125 g ai/ha, visual rating after 13 to 15 days, scale 0 (no effect) to 100 (complete control)): 90%
pest or weed control at 250 g/ha ([5]; Eriochloa villosa, pre-emergence, 250 g ai/ha, Preemergence, 0 to 100 scale, read-out: Plant response rating, Cupgrass, Woolly): 90%
pest or weed control at 31 g/ha ([5]; Eriochloa villosa, pre-emergence, Preemergence, read-out: Plant response rating, Cupgrass, Woolly): 0%
pest or weed control at 62 g/ha ([5]; Eriochloa villosa, pre-emergence, Preemergence, scale 0 to 100, 0 no effect, 100 complete control, read-out: Plant response rating, Cupgrass, Woolly): 45%
Cupgrass, Woolly plant response rating [5, 10]: 100
Cupgrass, Woolly plant response rating [5, 11]: 75
pest or weed control at 62 g/ha (kochia (Kochia scoparia); Bassia scoparia, post-emergence, 62 g ai/ha, scale 0 (no effect) to 100 (complete control), 13 to 15 days, read-out: Plant response rating, Kochia): 95%
pest or weed control at 125 g/ha (kochia (Kochia scoparia); Bassia scoparia, post-emergence, 125 g ai/ha, visual rating after 13 to 15 days, scale 0 (no effect) to 100 (complete control)): 98%
Kochia plant response rating (kochia (Kochia scoparia); 250 g ai/ha, scale 0 to 100): 100
pest or weed control at 62 g/ha ([6]; Cyperus, post-emergence, Postemergence, 62 g ai/ha, scale 0 (no effect) to 100 (complete control), 13 to 15 days, read-out: Plant response rating, Nutsedge, Yellow): 65%
pest or weed control at 125 g/ha ([6]; Cyperus, post-emergence, Postemergence, 125 g ai/ha, visual rating after 13 to 15 days, scale 0 (no effect) to 100 (complete control)): 70%
pest or weed control at 250 g/ha ([6]; Cyperus, pre-emergence, 250 g ai/ha, Preemergence, 0 to 100 scale, read-out: Plant response rating, Nutsedge, Yellow): 90%
pest or weed control at 31 g/ha ([6]; Cyperus, pre-emergence, Preemergence, 31 g ai/ha, scale 0 to 100 (0 no effect, 100 complete control), read-out: Plant response rating, Nutsedge, Yellow): 45%
Nutsedge, Yellow plant response rating [6, 11]: 80
Surinam Grass plant response rating [7, 11]: 100
pest or weed control at 62 g/ha ([7]; Urochloa decumbens, post-emergence, Postemergence, 62 g ai/ha, scale 0 (no effect) to 100 (complete control), 13 to 15 days, read-out: Plant response rating, Surinam Grass): 95%
pest or weed control at 125 g/ha ([7]; Urochloa decumbens, post-emergence, Postemergence, 125 g ai/ha, visual rating after 13 to 15 days, scale 0 (no effect) to 100 (complete control)): 98%
pest or weed control at 250 g/ha ([7]; Urochloa decumbens, pre-emergence, 250 g ai/ha, Preemergence, 0 to 100 scale, read-out: Plant response rating, Surinam Grass): 100%
pest or weed control at 31 g/ha ([7]; Urochloa decumbens, pre-emergence, Preemergence, 31 g ai/ha, scale 0 to 100 (0 no effect, 100 complete control), read-out: Plant response rating, Surinam Grass): 85%
Plant response rating, Galium ([8]; 250 g ai/ha, 0 to 100 scale): 95
Plant response rating, Galium [8, 12]: 50
Plant response rating, Galium [8, 13]: 50
Galium plant response rating ([8]; 125 g ai/ha, 0 to 100 scale): 50
pest or weed control at 62 g/ha (wild oat (Avena fatua); Avena fatua, post-emergence, Postemergence, 62 g ai/ha, scale 0 (no effect) to 100 (complete control), 13 to 15 days, read-out: Plant response rating, Oat, Wild): 60%
pest or weed control at 125 g/ha (wild oat (Avena fatua); Avena fatua, post-emergence, Postemergence, 125 g ai/ha, visual rating after 13 to 15 days, scale 0 (no effect) to 100 (complete control)): 60%
pest or weed control at 250 g/ha (wild oat (Avena fatua); Avena fatua, pre-emergence, 250 g ai/ha, Preemergence, 0 to 100 scale, read-out: Plant response rating, Oat, Wild): 10%
pest or weed control at 31 g/ha (wild oat (Avena fatua); Avena fatua, pre-emergence, Preemergence, 31 g ai/ha, scale 0 to 100 (0 no effect, 100 complete control), read-out: Plant response rating, Oat, Wild): 0%
Oat, Wild plant response rating (wild oat (Avena fatua); [11]): 0
Cocklebur plant response rating [9, 10]: 100
pest or weed control at 31 g/ha ([9]; Xanthium strumarium, post-emergence, Postemergence, 31 g ai/ha, scale 0 to 100 (0 no effect, 100 complete control), read-out: Plant response rating, Cocklebur): 95%
pest or weed control at 125 g/ha ([9]; Xanthium strumarium, post-emergence, Postemergence, 125 g ai/ha, visual rating after 13 to 15 days, scale 0 (no effect) to 100 (complete control)): 95%
pest or weed control at 62 g/ha ([9]; Xanthium strumarium, pre-emergence, Preemergence, 62 g ai/ha, scale 0 to 100, 0 no effect, 100 complete control, read-out: Plant response rating, Cocklebur): 0%
